In ChEMBL document CHEMBL4725256, “A critical update on the strategies towards modulators targeting androgen receptors” (Bioorg Med Chem, 2020):

Molecular target: T1, Androgen receptor (Rattus norvegicus, UniProt P15207)
T1 sequence (P15207 whole entry): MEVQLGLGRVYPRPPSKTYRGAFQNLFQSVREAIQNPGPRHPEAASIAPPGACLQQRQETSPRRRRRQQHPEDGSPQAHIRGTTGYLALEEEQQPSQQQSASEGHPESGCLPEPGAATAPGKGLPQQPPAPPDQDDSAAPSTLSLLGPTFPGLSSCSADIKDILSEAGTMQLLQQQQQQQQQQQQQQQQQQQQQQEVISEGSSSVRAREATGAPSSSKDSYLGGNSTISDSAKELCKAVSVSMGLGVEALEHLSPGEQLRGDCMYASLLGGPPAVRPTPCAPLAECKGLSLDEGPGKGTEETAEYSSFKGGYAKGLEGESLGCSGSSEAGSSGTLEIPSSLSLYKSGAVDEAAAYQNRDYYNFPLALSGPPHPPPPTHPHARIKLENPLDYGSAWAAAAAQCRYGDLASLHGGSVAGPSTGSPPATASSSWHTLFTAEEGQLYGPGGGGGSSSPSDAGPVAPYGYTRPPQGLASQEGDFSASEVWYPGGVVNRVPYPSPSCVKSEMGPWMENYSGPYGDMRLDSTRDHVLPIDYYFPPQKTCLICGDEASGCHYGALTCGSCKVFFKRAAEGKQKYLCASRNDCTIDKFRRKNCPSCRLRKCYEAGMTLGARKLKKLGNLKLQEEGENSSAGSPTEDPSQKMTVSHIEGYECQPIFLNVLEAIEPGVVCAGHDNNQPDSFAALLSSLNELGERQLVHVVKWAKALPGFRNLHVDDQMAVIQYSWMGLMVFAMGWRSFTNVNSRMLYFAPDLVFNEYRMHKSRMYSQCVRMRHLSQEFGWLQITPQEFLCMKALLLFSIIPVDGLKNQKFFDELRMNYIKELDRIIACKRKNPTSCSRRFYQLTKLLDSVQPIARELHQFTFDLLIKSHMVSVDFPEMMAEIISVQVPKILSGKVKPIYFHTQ
Assay: Antagonist activity at recombinant GST/His-tagged rat androgen receptor amino-terminal domain by fluorescence polarization assay

IC50: 6 µM
SMILES: CC(C)(c1ccc(OCC(O)CO)cc1)c1ccc(OCC(O)CCl)cc1 (stereo unspecified)
